From patent US7198775B2, “Detectably labeled porphyrin compound for identifying the sentinel lymph node” (The Trustees of Columbia University in the City of New York, priority 2000, dated 2007)

Key:
lymph nodes = experiment: dye tested on rabbits for staining of the lymph nodes; format: in vivo
Description: The present invention in one embodiment therefore acts as a dye that stains the lymphatic channels of the body for identification of the sentinel lymph node.

[1] = rats bearing tumors; cited from earlier work

Row | Substance | staining of the lymph nodes (lymph nodes) | in vivo stability of the complex [1] | tissue distribution (accumulation of most of the product) [1] | tumor uptake [1]
1 | Tc-99m Phthalocyanine Tetrasulfonate [Tc-99m-PCTS] | successfully shown to stain the lymph nodes | – | – | –
2 | ^99Tc-labeled-tetrasulfophtalocyanine [[^99Tc] TSPC] | – | absence of ^99Tc accumulation in the thyroid and the stomach | accumulated in the liver, kidneys, ovaries, and uterus | occurred mainly in the exterior cell layers
